The values below are quoted from earlier work in patent US20190382321A1, “ACID-RESISTANT UREASE INHIBITOR ADDUCT-[…] COMPOSITIONS” (Koch Agronomic Services, LLC, priority 2017, published 2019).

The conditions of the series: blend of NBPT-containing urea and one or more acidic fertilizers.

Structures are written as SMILES.

For the compound `CCCCNP(N)(N)=S` [NBPT, N-(n-butyl) thiophosphoric triamide], the “time to almost complete decomposition after blending” value is listed as 1-2 weeks.
